Row | SMILES | melting point [°C]
1 | O=C(c1ccc(OCCn2ccnc2)cc1)N1CCOCC1 | 109 to 111
2 | CCCOc1ccc(CCCOc2nn(Cc3ccccc3)cc2CC(=O)O)c(Oc2ncc(C(F)(F)F)cc2Cl)c1 | 96.5 to 97.5
3 | CCCCCCCCCCCCOc1ccc([N+](=O)[O-])cc1 | 51.5 to 53
4 | COC(=O)c1ccc(OC(=O)c2ccc(C(=O)Oc3ccc(C(=O)OC)cc3)cc2)cc1 | 243 to 245
5 | CN1CCN(C2=C3CN(C)CC34CC(=CC#N)C=CC4=NC=C2)CC1 (configuration not stated) | 178 to 180
6 | O=C(O)C1CCc2c(-c3ccc(Cl)cc3)noc2C1 (configuration not stated) | 227 to 228
7 | N#CC1CN1C(=O)c1ccc2c(c1)OCO2 (configuration not stated) | 95 to 97
8 | COC(=O)c1ncccc1NC(=O)C(C)CSC(C)=O (configuration not stated) | 54 to 56
9 | O=C1c2c(OCc3ccccc3)cccc2-c2nn(CCN(CCO)Cc3ccccc3)c3ccc(Cl)c1c23 | 130 to 134
10 | Nc1c(Cl)cc(C(O)CNCCCCCCOCCCc2cncc(CC(=O)O)c2)cc1Cl (configuration not stated) | 191 to 192
11 | CCOc1cc2c(cc1O)C(C(Cl)(Cl)Cl)OC2=O (configuration not stated) | 143 to 144
12 | CCCCCCCCCCCCCCCCCCN(C)CC(O)CO (configuration not stated) | 59
13 | CC(C)C[C@H](NC(=O)[C@@H](O)[C@@H](Cc1ccc(S(C)(=O)=O)cc1)NC(=O)OCc1ccccc1)C(=O)OCc1ccccc1 | 136 to 138
14 | Cc1ccc(S(=O)(=O)OCCCn2c3c(c4ccccc4c2=O)C(=O)c2ccccc2-3)cc1 | 177 to 179
15 | COC(=O)C1=C(C)NC(C)=C(C(=O)OCCOC(=O)c2ccc(NC(C)=O)cc2)C1c1cccc([N+](=O)[O-])c1 (configuration not stated) | 190 to 193
16 | CC(C)(C)CCc1nn(-c2ccc(F)cc2F)c2c1C1CCC2C1 (configuration not stated) | 54 to 57
17 | COC(=O)NNC(=O)CCCl | 129
18 | Cc1nnc(Br)n1-c1ccc(Cl)cc1C(=O)c1ccccc1 | 198 to 199
19 | C=CCc1c(F)c(F)c(NN)c(F)c1F | 79 to 81
20 | COc1c(Br)c(O)c(C=O)c(OC)c1Br | 103 to 104
21 | Cc1ccc(Cc2cnc(CCCOc3cc(CN4CCCCC4)ccn3)[nH]c2=O)cn1 | 99 to 100

Row | SMILES | melting point [°C]
22 | CC(=O)N1CCC[C@H]1C(=O)Nc1ccc(S(N)(=O)=O)cc1 | 283 to 285
23 | O=C(O)CCCCC(O)CCCl (single isomer, unassigned; (-)) | 29 to 30
24 | CCOC(=O)c1csc(C=O)n1 | 65 to 67
25 | CC(=O)OCC1OC(n2c3ccccc3c3c4c(c5c6cccnc6[nH]c5c32)C(=O)N(CO)C4=O)C(OC(C)=O)C(OC(C)=O)C1OC(C)=O (configuration not stated) | 264 to 266
26 | CC1(CBr)OC(C(Br)(Br)Br)OC1=O (configuration not stated) | 110 to 113
27 | Cc1ccc(-c2ccc(S(C)(=O)=O)cc2)n1-c1ccc(-c2ccoc2)cc1 | 200 to 202
28 | Cc1nc2cc(S(=O)(=O)n3c(COC(C)(C)C(=O)O)cc4cc(Cl)ccc43)ccc2s1 | 134 to 136
29 | Cn1c(COc2ccc(CC3SC(=O)NC3=O)cc2)nc2ccc(Oc3cccc(NC(=O)NC45CC6CC(CC(C6)C4)C5)c3)cc21 (configuration not stated) | 227 to 231
30 | COc1nc(C)cnc1NS(=O)(=O)c1cccnc1-c1ccc(COC(C)C)cc1 | 123 to 124
31 | COC(=O)N1CCN(c2ccc(N3CC(CNC(C)=O)OC3=O)cc2F)CC1 (configuration not stated) | 177 to 179
32 | CC1CC(=O)NN=C1c1ccc(NC(=O)C2CC2(Cl)Cl)cc1 (configuration not stated) | 252 to 253
33 | COC(=O)C1=C(C)NC2=C(C(=O)CN(CC(O)COc3cccc(C)c3C)C2)C1c1c(F)ccc(Cl)c1Cl (configuration not stated) | 190 to 193
34 | CNc1c(NCCCCc2ncc(Br)cc2C)c(=O)c1=O | 190 to 191
35 | CN(C)C=Cc1ncc([N+](=O)[O-])n1CCN(C)C | 81 to 82
36 | ONCc1ccc(N2CCC3(CC2)OCCO3)cc1 | 107 to 109
37 | Cc1c[nH]c2c1CC1CNCCC1C2 (configuration not stated) | 151 to 153
38 | COC(=O)c1ccc(NN2C(=O)C(C)=C(C)C2=O)cc1C(=O)Nc1nc(OC)nc(OC)n1 | 123 to 127
39 | C[C@@]1(CN2CCN(C(=O)OCc3ccc(F)cc3)CC2)Cn2cc([N+](=O)[O-])nc2O1 | 167 to 169
40 | CCCN(CCC)C(=O)C(CCC(N)=O)NC(=O)C=Cc1ccco1 (configuration not stated) | 152 to 153
41 | CN(C)CCn1c(=O)c2cc([N+](=O)[O-])ccc2c2cnc3cc4c(cc3c21)OCO4 | 204 to 205

The next lines start with the values.

Row | melting point [°C] | SMILES
42 | 138 to 141 | COc1ccccc1N1CCN([C@@H]2Cc3c(cccc3OC)C[C@H]2O)CC1 (relative stereo)
43 | 151 to 152 | CC1Cc2cc(N)ccc2C1=O (configuration not stated)
44 | 48 to 50 | O=C1C(c2ccccc2)SCN1CCCCBr (configuration not stated)
45 | 160 to 164 | COC(=O)C[C@@H]1C[C@@H](COc2ccc(-c3ccc(C(=N)NC(=O)OCc4ccccc4)cc3)cc2)NC1=O
46 | 108 | COc1cc(-c2nc3ccc(OCCN(C)C)cc3n2Cc2ccccc2)cc(OC)c1OC
47 | 106 | O=C(OCc1ccc(Br)cc1)C1C(=O)OC2CC(=O)N21 (configuration not stated)
48 | 92 to 94 | CCN1CCc2c([nH]c3ccccc23)C1CNC(=O)OCc1ccccc1 (configuration not stated)
49 | 98 to 99 | Nc1ccc(S(=O)(=O)C(F)(F)C(F)Cl)cc1Cl (configuration not stated)
50 | 88 to 89 | COc1ccc(CC(=O)O)cc1OCCc1ccccc1
51 | 197 to 198 | O=C(O)C1=CC2C(=O)NC(=O)C2(CCO)C=C1 (configuration not stated)
52 | 130 to 131 | CC(C)(N)CNC(=O)Nc1ccccc1
53 | 205 to 208 | Cc1nc2cc(-c3ccccc3C#N)ccc2[nH]1
54 | 122 to 124 | CCOC(=O)C1=C(COCc2nnn[nH]2)NC(C)=C(C(=O)OC)C1c1ccccc1Cl (configuration not stated)
55 | 142 to 144 | Cc1nc(N2CCN(Cc3ccccc3)C2=N)sc1C(=O)NCc1ccc(F)cc1
56 | 45 to 53 | COc1ccc(S(=O)(=O)N(Cc2cccnc2)C(C(N)=O)C(C)C)cc1 (configuration not stated)
57 | 250 | O=C(Nc1cnccn1)Nc1cccc2c1C1C[C@@H](O)CCN1C2=O (some centres not stated)
58 | 200 | CN1C(=O)c2c(Oc3ccccc3O)cc3[nH]c4cc(O)ccc4c3c2C1=O
59 | 165 | O=C(O)CSc1c(Cl)cc2c(-c3ccccc3F)noc2c1Cl
60 | 167 to 168 | Cc1cc(C)c(-n2nnc3c(-c4ccc(Cl)cc4Cl)nc(C)nc32)c(C)c1
61 | 156 to 158 | NC(=O)c1[nH]c2ccccc2c1-c1ccc(NC(=O)Nc2cccc(C(F)(F)F)c2)cc1
62 | 66 to 68 | CCOC(=O)CC(=O)Nc1ccc(F)cc1F

Row | melting point [°C] | SMILES
63 | 140 to 141 | Cc1c(-c2ccccc2)[nH]c(N2CCCC2=O)c1C#N
64 | 165 to 167 | CC(C)(C)C1=CC(=Nc2ccc(CCC(=O)O)cc2)C=C(C(C)(C)C)C1=O
65 | 155 | O=S(CCCCOc1ccc(C2=C(c3ccccc3)CCCc3cc(O)ccc32)cc1)CCCC(F)(F)C(F)(F)F (configuration not stated)
66 | 138 | COc1cc2c(cc1OC)CN(CCCc1ccc(N)cc1)CC2
67 | 131 to 132 | N#Cc1ccc(N2CC(C(=O)N3CCN(CC(=O)OCc4ccccc4)CC3)OC2=O)cc1 (configuration not stated)
68 | 64 to 67 | CN(C)CCC1CCCCN1C1c2ccccc2Oc2ccccc21 (configuration not stated)
69 | 99.5 to 100 | CC1(C)OC(c2ccccc2)CN1C(=O)C(Cl)Cl (configuration not stated)
70 | 85 | CC(C)(C)OC(=O)C=Cc1ccc(NC(=O)C=C2CC(C(=O)OCc3ccccc3)Nc3cc(Cl)cc(Cl)c32)cc1 (racemic)
71 | 279 to 284 | Nc1cccc(-c2cc3[nH]c4ccc(O)cc4c3c3c2C(=O)NC3=O)c1
72 | 166 to 168 | CN(C)Cc1ccc(-c2cc3ncc(C#N)c(Cl)c3s2)cc1
73 | 77 to 80 | Fc1ccc(COc2ccc(CS)cc2)cc1
74 | 270 to 274 | Cc1cc(-c2ccc(O)cc2)cc2ccc(=O)[nH]c12
75 | 115 to 116 | CC(C)(OCc1nn(Cc2ccccc2)c2ccccc12)C(=O)NO
76 | 103 to 105 | CC(C)N1CCCN=C1SC1=C(O)CC(c2ccccc2)OC1=O (configuration not stated)
77 | 250 to 252 | O=c1cc(CO)oc2cc(O)ccc12
78 | 189 to 192 | O=c1[nH]cccc1-c1cccnc1
79 | 130 | Nc1ccc(N2CCN(Cc3ncc(-c4ccccc4)o3)CC2)cc1
80 | 117 to 119 | Cc1nccn1-c1ccc(N)cc1C(F)(F)F
81 | 134 | CC(=O)NCCOc1ccc(N)cc1O
82 | 186 to 188 | CCN1C(=O)c2cccnc2Nc2cccc(C)c21
83 | 104 to 105 | CCOC(=NC(=O)c1cccc2ccccc12)c1ccc(Br)cc1

Row | melting point [°C] | SMILES
84 | 73.5 to 74.4 | OCc1cc2ccccc2[nH]1
85 | 86.5 to 87.5 | CCC#CCCOc1cc(C=O)ccc1OC
86 | 137 to 139 | O=C(O)Cn1c(Cc2ccccc2)ccc1-c1ccccc1
87 | 111 to 113 | CCc1c(-c2ccc(OCc3ccccc3)cc2)c2cc(COC)c3cccc1n32
88 | 198 to 200 | CCn1cc(C)c2cnc(NC(=O)c3ccc(C(C)(C)O)cc3)cc21
89 | 85 to 89 | CN1CCN(c2ccc(S(=O)(=O)c3ccc(F)cc3)c(N)c2)CC1
90 | 131 to 132 | CCCCCCNC(=O)C(C)N1CCN(c2ccccn2)CC1 (configuration not stated)
91 | 107 to 109 | Cc1ccc(S(=O)(=O)OCCc2nc(-c3cccc(Br)c3)oc2C)cc1
92 | 282 to 285 | COc1cc2c3c4c(c(-c5ccccc5Cl)cc3n(C)c2cc1OCc1ccccc1)C(=O)NC4=O
93 | 184 to 192 | CCc1cc2c(c3ccc(O)cc13)OCc1cc(O)ccc1-2
94 | 100 to 101 | Oc1ccc(F)c(O)c1F
95 | 197 | COC(=O)C1=C(C)NN=C(C(=O)N(C)Cc2ccccc2)C1c1ccccc1C(F)(F)F (configuration not stated)
96 | 169 to 170 | CCc1c(N)cccc1NC(=O)c1ccc(Br)cc1
97 | 217 to 218 | O=c1ccc2cc(-c3cccnc3)ccc2[nH]1
98 | 72 | N#Cc1ccc(C(=C2CCCC2)c2nc[nH]n2)cc1
99 | 290 | COc1ccc(-c2cc3ccc(C(=O)O)cc3o2)cc1C12CC3CC(CC(C3)C1)C2
100 | 142 to 144 | COc1ccccc1-c1nc(=S)n(Cc2ccccc2)[nH]1
101 | 87.3 | Fc1cc(-c2ncon2)ccc1CBr
102 | 189 to 192 | NCCc1cc(-c2ccccc2)n(-c2ccc(S(N)(=O)=O)cc2)n1

From a melting point compilation (Tetko et al.; mined from patent text by program, amines drawn as free bases though some values may be those of a salt)
